Patent US20080219917A1, “HARMONIZED WATER AND AQUEOUS SOLUTIONS” (DVB GLOBAL, priority 2007, published 2008)

How the values were obtained:
[1] = tested on: human dermal fibroblasts, human liver carcinoma cells (HepG2), and neuronal human astrocytes; conditions: same experiments (Sayes, 2004); cited from earlier work
[2] = tested on: Salmonella typhimurium; assay: Salmonella typhimurium reverse mutation assay (AMES test); format: cell-based
From the text: Toxicity test for harmonized, Modified Fullerenes has shown this substance is not cytotoxic when the material is subjected to a Salmonella typhimurium reverse mutation assay (AMES test). The Ames test is used to determine any potential mutagenic activity of the test HMF material. The HMF material was exposed to a large number of test organism in an agar plate. The agar plates were monitored for growth of revertants (organisms mutating to the wild type). The number of wild type organisms are counted to estimate the mutagenic potential of the HMF material.

Substance | cytotoxicity [1] | cytotoxicity ([2]; Toxicity test, AMES test) | mutagenic potential (growth of revertants) ([2]; agar plate)
C60(OH)24 [Modified Fullerenes] | no cytotoxicity |  | 
[C60(OH)10-36]^Φ/φ [HMF] |  | not cytotoxic | not mutagenic
